# Source: ChEMBL document CHEMBL3885861, “Open TG-GATES”
# Organism: Rattus norvegicus
# Assay: Open TG-GATES - Regimen: Single
# Type: toxicity, organism-based, Sprague-Dawley
# Design: regimen Single, gender Male, age 6 weeks
# Settings: in vivo, po, route gavage; for gamma-GTP / ALP / ALT / AST / BUN / Ca / Cl / DBIL / GLC / IP / K / LDH / Na / PL / RALB / TBIL / TC / TP / CRE: tissue Plasma; for APTT / Bas / Eos / Fbg / Hb / Ht / Lym / MCH / MCHC / MCV / Mono / Neu / PT / Plat / RBC / Ret / WBC: tissue Blood; for KIDNEY_L / KIDNEY_R / KIDNEY_TOTAL: tissue Kidney; for LIVER: tissue Liver
# [1] = 15 mg/kg, 24 h, dose level High
# [2] = 50 mg/kg, 3 h, dose level Middle
# [3] = 50 mg/kg, 6 h, dose level Middle
structure (smiles),measurement,setting,value
O=P1(N(CCCl)CCCl)NCCCO1 (stereo unspecified) [CYCLOPHOSPHAMIDE ANHYDROUS],gamma-GTP,"15 mg/kg, 9 h, dose level High",1 IU/L
same,ALP,"15 mg/kg, 9 h, dose level Low",1388.6 IU/L
same,ALT,"15 mg/kg, 9 h, dose level Low",31.2 IU/L
same,AST,"15 mg/kg, 9 h, dose level Low",67.6 IU/L
same,BUN,"15 mg/kg, 9 h, dose level Low",8.2 mg/dL
same,Ca,"15 mg/kg, 9 h, dose level Low",10.6 mg/dL
same,Cl,"15 mg/kg, 9 h, dose level Low",106.6 meq/L
same,DBIL,"15 mg/kg, 9 h, dose level Low",0.012 mg/dL
same,GLC,"15 mg/kg, 9 h, dose level Low",163.8 mg/dL
same,IP,"15 mg/kg, 9 h, dose level Low",10.3 mg/dL
same,K,"15 mg/kg, 9 h, dose level Low",4.4 meq/L
same,LDH,"15 mg/kg, 9 h, dose level Low",55.2 IU/L
same,Na,"15 mg/kg, 9 h, dose level Low",142.2 meq/L
same,PL,"15 mg/kg, 9 h, dose level Low",135.8 mg/dL
same,RALB,"15 mg/kg, 9 h, dose level Low",2.5 g/dL
same,TBIL,"15 mg/kg, 9 h, dose level Low",0.058 mg/dL
same,TC,"15 mg/kg, 9 h, dose level Low",77.4 mg/dL
same,TP,"15 mg/kg, 9 h, dose level Low",5.2 g/dL
same,gamma-GTP,"15 mg/kg, 9 h, dose level Low",1.2 IU/L
same,TERMINAL_BW,[1],195.1 g
same,TERMINAL_BW,"15 mg/kg, 24 h, dose level Low",205.2 g
same,APTT,[1],21.5 s
same,Bas,[1],0%
same,Eos,[1],0.8%
same,Fbg,[1],304 mg/dL
same,Hb,[1],13.6 g/dL
same,Ht,[1],40.8%
same,Lym,[1],88.2%
same,MCH,[1],21.2 pg
same,MCHC,[1],33.4%
same,MCV,[1],63.5 fL
same,Mono,[1],2.4%
same,Neu,[1],8%
same,PT,[1],16.2 s
same,Plat,[1],117.1 x10_4/uL
same,RBC,[1],643 x10_4/ul
same,Ret,[1],5.3%
same,WBC,[1],44.1 x10_2/uL
same,APTT,"15 mg/kg, 24 h, dose level Low",17.5 s
same,Fbg,"15 mg/kg, 24 h, dose level Low",286.4 mg/dL
same,Hb,"15 mg/kg, 24 h, dose level Low",12.9 g/dL
same,Ht,"15 mg/kg, 24 h, dose level Low",38.1%
same,Lym,"15 mg/kg, 24 h, dose level Low",85.4%
same,MCH,"15 mg/kg, 24 h, dose level Low",20.7 pg
same,MCHC,"15 mg/kg, 24 h, dose level Low",34%
same,MCV,"15 mg/kg, 24 h, dose level Low",60.9 fL
same,Mono,"15 mg/kg, 24 h, dose level Low",2%
same,Neu,"15 mg/kg, 24 h, dose level Low",11.2%
same,PT,"15 mg/kg, 24 h, dose level Low",14.1 s
same,Plat,"15 mg/kg, 24 h, dose level Low",116.3 x10_4/uL
same,RBC,"15 mg/kg, 24 h, dose level Low",625.2 x10_4/ul
same,Ret,"15 mg/kg, 24 h, dose level Low",6.8%
same,WBC,"15 mg/kg, 24 h, dose level Low",48.9 x10_2/uL
same,KIDNEY_L,[1],0.9 g
same,KIDNEY_R,[1],0.9 g
same,KIDNEY_TOTAL,[1],1.8 g
same,LIVER,[1],8.6 g
same,LIVER,"15 mg/kg, 24 h, dose level Low",9.1 g
same,ALP,[1],1751 IU/L
same,ALT,[1],45 IU/L
same,AST,[1],71 IU/L
same,BUN,[1],14.6 mg/dL
same,CRE,[1],0.2 mg/dL
same,Ca,[1],10.8 mg/dL
same,Cl,[1],104.8 meq/L
same,DBIL,[1],0.006 mg/dL
same,GLC,[1],179 mg/dL
same,IP,[1],8.4 mg/dL
same,K,[1],4.3 meq/L
same,LDH,[1],195.4 IU/L
same,Na,[1],142.4 meq/L
same,PL,[1],143.6 mg/dL
same,RALB,[1],3.1 g/dL
same,TBIL,[1],0.02 mg/dL
same,TC,[1],75 mg/dL
same,TP,[1],5.5 g/dL
same,gamma-GTP,[1],1.2 IU/L
same,ALP,"15 mg/kg, 24 h, dose level Low",1404.4 IU/L
same,ALT,"15 mg/kg, 24 h, dose level Low",40.2 IU/L
same,AST,"15 mg/kg, 24 h, dose level Low",71.4 IU/L
same,BUN,"15 mg/kg, 24 h, dose level Low",14.4 mg/dL
same,Ca,"15 mg/kg, 24 h, dose level Low",11.1 mg/dL
same,Cl,"15 mg/kg, 24 h, dose level Low",105.2 meq/L
same,DBIL,"15 mg/kg, 24 h, dose level Low",0.02 mg/dL
same,GLC,"15 mg/kg, 24 h, dose level Low",176.4 mg/dL
same,IP,"15 mg/kg, 24 h, dose level Low",8.1 mg/dL
same,K,"15 mg/kg, 24 h, dose level Low",4.5 meq/L
same,LDH,"15 mg/kg, 24 h, dose level Low",82 IU/L
same,Na,"15 mg/kg, 24 h, dose level Low",140.8 meq/L
same,PL,"15 mg/kg, 24 h, dose level Low",159.4 mg/dL
same,RALB,"15 mg/kg, 24 h, dose level Low",2.6 g/dL
same,TBIL,"15 mg/kg, 24 h, dose level Low",0.06 mg/dL
same,TC,"15 mg/kg, 24 h, dose level Low",87.6 mg/dL
same,TP,"15 mg/kg, 24 h, dose level Low",5.6 g/dL
same,gamma-GTP,"15 mg/kg, 24 h, dose level Low",1 IU/L
same,TERMINAL_BW,[2],190.4 g
same,APTT,[2],20 s
same,Bas,[2],0%
same,Eos,[2],0.8%
same,Fbg,[2],281.6 mg/dL
same,Hb,[2],13 g/dL
same,Ht,[2],38.9%
same,Lym,[2],78%
same,MCH,[2],20.6 pg
same,MCHC,[2],33.4%
same,MCV,[2],61.6 fL
same,Mono,[2],2.6%
same,Neu,[2],17.6%
same,PT,[2],13.8 s
same,Plat,[2],111.1 x10_4/uL
same,RBC,[2],631.6 x10_4/ul
same,Ret,[2],9.2%
same,WBC,[2],101.7 x10_2/uL
same,KIDNEY_L,[2],0.8 g
same,KIDNEY_R,[2],0.8 g
same,KIDNEY_TOTAL,[2],1.6 g
same,LIVER,[2],8.3 g
same,ALP,[2],1500.2 IU/L
same,ALT,[2],35.8 IU/L
same,AST,[2],72.6 IU/L
same,BUN,[2],10 mg/dL
same,CRE,[2],0.2 mg/dL
same,Ca,[2],11.1 mg/dL
same,Cl,[2],104.8 meq/L
same,DBIL,[2],0.018 mg/dL
same,GLC,[2],171.8 mg/dL
same,IP,[2],8.7 mg/dL
same,K,[2],4.4 meq/L
same,LDH,[2],72.6 IU/L
same,Na,[2],140.2 meq/L
same,PL,[2],160.4 mg/dL
same,RALB,[2],2.4 g/dL
same,TBIL,[2],0.068 mg/dL
same,TC,[2],86.6 mg/dL
same,TP,[2],5.3 g/dL
same,gamma-GTP,[2],1.4 IU/L
same,TERMINAL_BW,[3],187.5 g
same,APTT,[3],17.2 s
same,Bas,[3],0%
same,Eos,[3],0.6%
same,Fbg,[3],278.4 mg/dL
